# Tests used:
# MCU = molecular target: T1, MCU (Homo sapiens, UniProt Q8NE86); assay: MCU-mediated mCa2+ uptake in permeabilized cells (spectrofluorometry); type: cell-based; details: permeabilized cells (HeLa, 10 μM per FIG. 10H legend)
# T1 construct: endogenous in cells; host or cells: HeLa cells, permeabilized
# T1 sequence (Q8NE86 51-351): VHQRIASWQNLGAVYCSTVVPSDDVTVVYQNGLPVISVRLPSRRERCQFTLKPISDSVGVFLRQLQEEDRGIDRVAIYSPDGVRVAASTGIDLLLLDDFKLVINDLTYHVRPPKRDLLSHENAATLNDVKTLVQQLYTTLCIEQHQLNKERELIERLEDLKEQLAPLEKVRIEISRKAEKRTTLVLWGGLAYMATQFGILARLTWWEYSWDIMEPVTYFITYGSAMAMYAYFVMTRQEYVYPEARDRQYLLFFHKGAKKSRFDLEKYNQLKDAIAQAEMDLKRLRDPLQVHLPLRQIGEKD
# T1 sequence (Q9H4I9 48-107 partner limits assumed): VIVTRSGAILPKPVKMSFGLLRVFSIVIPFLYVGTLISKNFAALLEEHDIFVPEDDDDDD
# Experimental: Bacterial CorA forms a pentameric complex that selectively drives Mg2+ uptake in an electrogenic manner. […] Mrs2 is the eukaryotic homologue of CorA and contains two transmembrane domains with a well-conserved F/Y-G-M-N motif; therefore, CorA blockers were tested to determine if they alter Mrs2-mediated mMg^2+ uptake (Moomaw and Maguire, 2008). Digitonin permeabilized hepatocytes were utilized to measure the inhibitory effect and determine its IC50. Permeabilized cells were treated with CPACC followed by a 1 mM bolus of MgCl2 (FIG. 10B). A 1 mM Mg^2+ bolus was added after baseline recording, and the extramitochondrial Mg^2+ clearance was used as a read-out for Mrs2-mediated mMg^2+ uptake using Mag-Green as a Mg^2+ indicator. […] We next investigated Mrs2 inhibition in intact hepatocytes loaded with Mag-Green-AM. […] Next CPACC was examined to determine if it had any effect on MCU-mediated mCa^2+ uptake in permeabilized cells. […] The availability of the compound to intact cells was measured using graphite furnace atomic absorption spectroscopy (GFAAS) and bicinchoninic acid in parallel.
# Spectrofluorimetric measurement of mitochondrial Mg^2+ and Ca^2+ dynamics and citrate mediated MagGreen fluorescence quenching. Fluorescence measurements were conducted in a multiwavelength excitation dual wavelength emission spectrofluorometer (Delta RAM, PTI, HORIBA). […]
# HIF-1α = details: cell culture
# Source text: HIF-1α is stabilized in Mrs2−/− mice. To examine the intrinsic role of Mrs2, Mrs2^−/− mice were challenged to LPS-induced inflammatory response. It was noticed that there was a barely detectable HIF-1α stabilization in control but a significant HIF-1α protein accumulation following LPS stimulation in Mrs2^−/− hepatocytes (Daw et al., 2020). […] It was envisioned that loss of Mrs2 in hepatocyte mitochondria might control metabolite fluxes that regulates HIF-1α stability under normoxic conditions. HIF-1α is the most commonly studied transcription factor that responds to oxygen tension and its stabilization controls numerous metabolic cascades, including glycolysis and oxidative phosphorylation (Kaelin and Ratcliffe, 2008; Lum et al., 2007; Semenza, 2013). A targeted metabolite screen was conducted to identify whether these metabolites potentially altered in Mrs2^−/− control HIF-1α stabilization. WT hepatocytes were treated with the PHD inhibitor FG-4952 for 6 hours in the presence or absence of metabolites (Buckley et al., 2012). […] Next it was explored whether citric acid mediated HIF-1α destabilization is a hydroxylation dependent mechanism by reconstitution of hydroxylation-dead mutant HIF-1α in COS-7 cells (Yan et al., 2007). […] Next tested the potency of citric acid and sodium citrate was tested. Hepatocytes isolated from WT or Mrs2^−/− mice were treated for 6 hours. HIF-1α stabilization was less affected by di- or tri-sodium citrate than by citric acid (FIG. 9G). […] The citric acid-mediated HIF-1α destabilization was intact in multiple chemical modalities (FIG. 9H) and the intracellular chelation of Mg^2+ ions suppressed FG-4952-induced HIF-1α stabilization (FIG. 9I). […] Furthermore, COS-7 cells were more sensitive to the HIF-1α stabilizing effect compared to hepatocytes. […] Next HIF-1α abundance was tested in liver tissues harvested from dietary cohorts. HIF-1α protein expression/stabilization was prominent in both Mrs2^−/− and Mrs2^−/− WD, whereas HIF-1α protein was nearly completely absent in WT WD (FIG. 9M). This supports the elevation of HIF-1α protein level as a key mechanism driving transcription changes in Mrs2^−/− WD livers.
# Immunoblotting. Crushed tissues were homogenized in lysis buffer (ThermoFisher) on ice for one minute (20-30 strokes) using an automatic Dounce homogenizer set to 2000 RPM. Whole cell lysate was prepared in lysis buffer (Abcam) using 3 sets of 3-second sonication (power level 3) intervals on ice. Protein concentration was estimated using Pierce BCA assay kit and samples were prepared and heated for 90° C. for 5 minutes. Equal amounts of protein were loaded and separated on 4%-12% Bis-Tris polyacrylamide gel (Thermo Fisher Scientific), transferred to a PVDF membrane, blocked for 1-2 h using 5% fat free skim milk, washed and finally, probed with corresponding antibodies as specified below. Antibodies were from Cell Signaling Technology (HIF-1α and Hydroxy HIF-1α dilution 1:3000, MCU dilution 1.5000, MICU1 dilution 1:3000), Abcam Abcam (CPT-1a, CPT-2, OXPHOS cocktail dilution 1:3000), ZYMED Laboratories (β-actin; dilution 1:1,000), and Amersham (secondary antibodies conjugated with peroxidase). Development was done using X-ray film using a series of timed exposures and Image J was used for densitometric analysis on scanned film images.
compound,measurement,setting,value
"[NH2][Co]([NH2])([NH2])([NH2])([NH2])[Cl] [CPACC, chloropentaammine cobalt (III) chloride]",MCU-mediated mCa^2+ uptake,MCU,did not inhibit
same,HIF-1α stabilization by the compound,HIF-1α,partial stabilization

# Source: patent publication US20240415878A1, “Compositions and Methods for Modulating Mitochondrial Function” (Board of Regents, The University of Texas System, priority 2021, published 2024)
